Values quoted from earlier work, collected in patent US6821972B2, “3-heterocyclylpropanohydroxamic acid PCP inhibitors” (Pfizer Inc., priority 2001, dated 2004).
Non-standard residues stand in square brackets, D forms with d. Residues, ends and D or L forms follow the SMILES beside them. *: point of attachment. Sta = CC(C)C[C@H](N)[C@@H](O)CC(=O)O; Isovaleryl = CC(C)CC(=O)*

Tests used:
[1] = system: PCP
[2] = system: endothelial cell invasion of basement membrane
[3] = system: keratinocyte migration; settings: collagen type I matrix, in vitro

Molecule: NCCCC[C@H](N)C(=O)O [lysine]
- inhibition of PCP (in words) [1]: inhibited

Molecule: CNC(=O)[C@H](Cc1ccccc1)NC(=O)[C@H](CC(C)C)[C@H](CSc1cccs1)C(=O)NO [BB94, (2S,3R)-5-methyl-3-{[(1S)-1-(methylcarbamoyl)-2-phenylethyl]carbamoyl}-2-[(2-thienylthio)methyl]hexanohydroxamic acid]
- inhibition of endothelial cell invasion [2]: inhibits endothelial cell invasion of basement membrane

Molecule: CNC(=O)[C@H](Cc1ccc(OC)cc1)NC(=O)[C@@H](CC(=O)NO)CC(C)C [SC44463]
- inhibition of keratinocyte migration [3]: completely inhibited

Molecule: O[C@H](CS)[C@H](O)CS (racemic) [Dithiothreitol, reference compound]
- inhibitory to PCP at low concentrations [1]: inhibitory at low concentrations

Molecule: CCCCCCCCCCCCOS(=O)(=O)[O-].[Na+] [SDS, reference compound]
- inhibitory to PCP at low concentrations [1]: inhibitory at low concentrations

Molecule: Tris-HCl
- inhibition of PCP activity by buffer ([1]; 0.2-0.5M): markedly inhibited activity

Molecule: CC(C)CC(=O)N[C@H](C(=O)N[C@H](C(=O)N[C@@H](CC(C)C)[C@@H](O)CC(=O)N[C@@H](C)C(=O)N[C@@H](CC(C)C)[C@@H](O)CC(=O)O)C(C)C)C(C)C [pepstatin A, reference compound] (Isovaleryl-VV[Sta]A[Sta]-OH)
- inhibition of PCP (in words) [1]: relatively strong inhibitors

Molecule: CC(C)C[C@H](NC(=O)[C@@H](NC(=O)N[C@@H](Cc1ccccc1)C(=O)O)[C@@H]1CCN=C(N)N1)C(=O)N[C@H](C=O)Cc1ccccc1 [chymostatin, reference compound]
- inhibition of PCP (in words) [1]: relatively strong inhibitors

Molecule: N=C(N)NCCC[C@H](N)C(=O)O [arginine]
- inhibition of PCP (in words) [1]: inhibited

Molecule: phosphate
- inhibitory to PCP at concentrations of 1-10 mM [1]: inhibitory

Molecule: N.N.O=S(=O)(O)O [ammonium sulfate]
- inhibitory to PCP at concentrations of 1-10 mM [1]: inhibitory

Molecule: concanavalin A
- inhibitory to PCP at low concentrations [1]: inhibitory at low concentrations

B1: ovostatin: "α2-Macroglobulin, ovostatin, and fetal bovine serum appear to at least partially inhibit PCP activity" (protein, UniProt P20740 37-1473, looked up)
Ovostatin: KEPEPQYVLMVPAVLQSDSPSQVCLQFFNLNQTISVRVVLEYDTINTTIFEKNTTTSNGLQCLNFMIPPVTSVSLAFISFTAKGTTFDLKERRSVMIWNMESFVFVQTDKPIYKPGQSVMFRVVALDFNFKPVQEMYPLIAVQDPQNNRIFQWQNVTSEINIVQIEFPLTEEPILGNYKIIVTKKSGERTSHSFLVEEYVLPKFDVTVTAPGSLTVMDSELTVKICAVYTYGQPVEGKVQLSVCRDFDSYGRCKKSPVCQSFTKDLDTDGCLSHILSSKVFELNRIGYKRNLDVKAIVTEKEQVCNLTATQSISITQVMSSLQFENVDHHYRRGIPYFGQIKLVDKDNSPISNKVIQLFVNNKNTHNFTTDINGIAPFSIDTSKIFDPELSLKALYKTSDQCHSEGWIEPSYPDASLSVQRLYSWTSSFVRIEPLWKDMSCGQKRMITVYYILNTEGYEHINIVNFYYVGMAKGKIVLTGEIKVNIQADQNGTFMIPLVVNEKMAPALRLLVYMLHPAKELVADSVRFSIEKCFKNKVQLQFSEKQMLTTSNVSLVIEAAANSFCAVRAVDKSMLLLKSETELSAETIYNLHPIQDLQGYIFNGLNLEDDPQDPCVSSDDIFHKGLYYRPLTSGLGPDVYQFLRDMGMKFFTNSKIRQPTVCTRETVRPPSYFLNAGFTASTHHVKLSAEVAREERGKRHILETIREFFPETWIWDIILINSTGKASVSYTIPDTITEWKASAFCVEELAGFGMSVPATLTAFQPFFVDLTLPYSIIHGEDFLVRANVFNYLNHCIKINVLLLESLDYQAKLISPEDDGCVCAKIRKSYVWNIFPKGTGDVLFSITAETNDDEACEEEALRNIRIDYRDTQIRALLVEPEGIRREETQNFLICMKDDVISQDVAIDLPTNVVEGSPRPSFSVVGDIMGTAIQNVHQLLQMPFGNGEQNMVLFAPNIYVLDYLDKTRQLSEDVKSKTIGYLVSGYQKQLSYKHPDGSYSTFGIRDKEGNTWLTAFVYKSFAEASRFIYIDDNVQAQTLIWLATKQKTDGCFQSTGILVNNAMKGGVENELSLSAYITIALLEAGHSMSHTVIRNAFYCLETASEKNITDIYTQALVAYAFCLAGKAEICESFLRELQKSAKEVDGSKYWEQNQRSAPEKSHLLDHVQSTDVEITSYVLLALLYKPNRSQEDLTKASAIVQWIIRQQNSYGGFASMQDTVVALQALAAYGAATYNSVTQNVIKINSKNTFEKVFTVNNENRLLLQQTPLPQVPGKYSLTVNGTGCVLIQTALRYNIHLPEGAFGFSLSVQTSNASCPRDQPGKFDIVLISSYTGKRSSSNMVIIDVKMLSGFVPVKSSLDQLIDDHTVMQVEYKKNHVLLYLGNILQKRRKEVTFSVEQDFVVTHPKPAPVQIYDYYETEEYAVAEYMSLCRGVVEEMG
- inhibition of PCP (in words) [1]: at least partially inhibit

B2: α2-Macroglobulin: "α2-Macroglobulin, ovostatin, and fetal bovine serum appear to at least partially inhibit PCP activity" (protein, UniProt P01023 24-1474, looked up)
Alpha-2-macroglobulin: SVSGKPQYMVLVPSLLHTETTEKGCVLLSYLNETVTVSASLESVRGNRSLFTDLEAENDVLHCVAFAVPKSSSNEEVMFLTVQVKGPTQEFKKRTTVMVKNEDSLVFVQTDKSIYKPGQTVKFRVVSMDENFHPLNELIPLVYIQDPKGNRIAQWQSFQLEGGLKQFSFPLSSEPFQGSYKVVVQKKSGGRTEHPFTVEEFVLPKFEVQVTVPKIITILEEEMNVSVCGLYTYGKPVPGHVTVSICRKYSDASDCHGEDSQAFCEKFSGQLNSHGCFYQQVKTKVFQLKRKEYEMKLHTEAQIQEEGTVVELTGRQSSEITRTITKLSFVKVDSHFRQGIPFFGQVRLVDGKGVPIPNKVIFIRGNEANYYSNATTDEHGLVQFSINTTNVMGTSLTVRVNYKDRSPCYGYQWVSEEHEEAHHTAYLVFSPSKSFVHLEPMSHELPCGHTQTVQAHYILNGGTLLGLKKLSFYYLIMAKGGIVRTGTHGLLVKQEDMKGHFSISIPVKSDIAPVARLLIYAVLPTGDVIGDSAKYDVENCLANKVDLSFSPSQSLPASHAHLRVTAAPQSVCALRAVDQSVLLMKPDAELSASSVYNLLPEKDLTGFPGPLNDQDNEDCINRHNVYINGITYTPVSSTNEKDMYSFLEDMGLKAFTNSKIRKPKMCPQLQQYEMHGPEGLRVGFYESDVMGRGHARLVHVEEPHTETVRKYFPETWIWDLVVVNSAGVAEVGVTVPDTITEWKAGAFCLSEDAGLGISSTASLRAFQPFFVELTMPYSVIRGEAFTLKATVLNYLPKCIRVSVQLEASPAFLAVPVEKEQAPHCICANGRQTVSWAVTPKSLGNVNFTVSAEALESQELCGTEVPSVPEHGRKDTVIKPLLVEPEGLEKETTFNSLLCPSGGEVSEELSLKLPPNVVEESARASVSVLGDILGSAMQNTQNLLQMPYGCGEQNMVLFAPNIYVLDYLNETQQLTPEIKSKAIGYLNTGYQRQLNYKHYDGSYSTFGERYGRNQGNTWLTAFVLKTFAQARAYIFIDEAHITQALIWLSQRQKDNGCFRSSGSLLNNAIKGGVEDEVTLSAYITIALLEIPLTVTHPVVRNALFCLESAWKTAQEGDHGSHVYTKALLAYAFALAGNQDKRKEVLKSLNEEAVKKDNSVHWERPQKPKAPVGHFYEPQAPSAEVEMTSYVLLAYLTAQPAPTSEDLTSATNIVKWITKQQNAQGGFSSTQDTVVALHALSKYGAATFTRTGKAAQVTIQSSGTFSSKFQVDNNNRLLLQQVSLPELPGEYSMKVTGEGCVYLQTSLKYNILPEKEEFPFALGVQTLPQTCDEPKAHTSFQISLSVSYTGSRSASNMAIVDVKMVSGFIPLKPTVKMLERSNHVSRTEVSSNHVLIYLDKVSNQTLSLFFTVLQDVPVRDLKPAIVKVYDYYETDEFAIAEYNAPCSKDLGNA
- inhibition of PCP (in words) [1]: at least partially inhibit
